The results in this text go back to US8569344B2, “N-piperidinyl acetamide derivatives as calcium channel blockers” (Zalicus Pharmaceuticals Ltd., priority 2008, dated 2013).

The structures appear in SMILES notation.

T2 sequence (O95180 whole entry): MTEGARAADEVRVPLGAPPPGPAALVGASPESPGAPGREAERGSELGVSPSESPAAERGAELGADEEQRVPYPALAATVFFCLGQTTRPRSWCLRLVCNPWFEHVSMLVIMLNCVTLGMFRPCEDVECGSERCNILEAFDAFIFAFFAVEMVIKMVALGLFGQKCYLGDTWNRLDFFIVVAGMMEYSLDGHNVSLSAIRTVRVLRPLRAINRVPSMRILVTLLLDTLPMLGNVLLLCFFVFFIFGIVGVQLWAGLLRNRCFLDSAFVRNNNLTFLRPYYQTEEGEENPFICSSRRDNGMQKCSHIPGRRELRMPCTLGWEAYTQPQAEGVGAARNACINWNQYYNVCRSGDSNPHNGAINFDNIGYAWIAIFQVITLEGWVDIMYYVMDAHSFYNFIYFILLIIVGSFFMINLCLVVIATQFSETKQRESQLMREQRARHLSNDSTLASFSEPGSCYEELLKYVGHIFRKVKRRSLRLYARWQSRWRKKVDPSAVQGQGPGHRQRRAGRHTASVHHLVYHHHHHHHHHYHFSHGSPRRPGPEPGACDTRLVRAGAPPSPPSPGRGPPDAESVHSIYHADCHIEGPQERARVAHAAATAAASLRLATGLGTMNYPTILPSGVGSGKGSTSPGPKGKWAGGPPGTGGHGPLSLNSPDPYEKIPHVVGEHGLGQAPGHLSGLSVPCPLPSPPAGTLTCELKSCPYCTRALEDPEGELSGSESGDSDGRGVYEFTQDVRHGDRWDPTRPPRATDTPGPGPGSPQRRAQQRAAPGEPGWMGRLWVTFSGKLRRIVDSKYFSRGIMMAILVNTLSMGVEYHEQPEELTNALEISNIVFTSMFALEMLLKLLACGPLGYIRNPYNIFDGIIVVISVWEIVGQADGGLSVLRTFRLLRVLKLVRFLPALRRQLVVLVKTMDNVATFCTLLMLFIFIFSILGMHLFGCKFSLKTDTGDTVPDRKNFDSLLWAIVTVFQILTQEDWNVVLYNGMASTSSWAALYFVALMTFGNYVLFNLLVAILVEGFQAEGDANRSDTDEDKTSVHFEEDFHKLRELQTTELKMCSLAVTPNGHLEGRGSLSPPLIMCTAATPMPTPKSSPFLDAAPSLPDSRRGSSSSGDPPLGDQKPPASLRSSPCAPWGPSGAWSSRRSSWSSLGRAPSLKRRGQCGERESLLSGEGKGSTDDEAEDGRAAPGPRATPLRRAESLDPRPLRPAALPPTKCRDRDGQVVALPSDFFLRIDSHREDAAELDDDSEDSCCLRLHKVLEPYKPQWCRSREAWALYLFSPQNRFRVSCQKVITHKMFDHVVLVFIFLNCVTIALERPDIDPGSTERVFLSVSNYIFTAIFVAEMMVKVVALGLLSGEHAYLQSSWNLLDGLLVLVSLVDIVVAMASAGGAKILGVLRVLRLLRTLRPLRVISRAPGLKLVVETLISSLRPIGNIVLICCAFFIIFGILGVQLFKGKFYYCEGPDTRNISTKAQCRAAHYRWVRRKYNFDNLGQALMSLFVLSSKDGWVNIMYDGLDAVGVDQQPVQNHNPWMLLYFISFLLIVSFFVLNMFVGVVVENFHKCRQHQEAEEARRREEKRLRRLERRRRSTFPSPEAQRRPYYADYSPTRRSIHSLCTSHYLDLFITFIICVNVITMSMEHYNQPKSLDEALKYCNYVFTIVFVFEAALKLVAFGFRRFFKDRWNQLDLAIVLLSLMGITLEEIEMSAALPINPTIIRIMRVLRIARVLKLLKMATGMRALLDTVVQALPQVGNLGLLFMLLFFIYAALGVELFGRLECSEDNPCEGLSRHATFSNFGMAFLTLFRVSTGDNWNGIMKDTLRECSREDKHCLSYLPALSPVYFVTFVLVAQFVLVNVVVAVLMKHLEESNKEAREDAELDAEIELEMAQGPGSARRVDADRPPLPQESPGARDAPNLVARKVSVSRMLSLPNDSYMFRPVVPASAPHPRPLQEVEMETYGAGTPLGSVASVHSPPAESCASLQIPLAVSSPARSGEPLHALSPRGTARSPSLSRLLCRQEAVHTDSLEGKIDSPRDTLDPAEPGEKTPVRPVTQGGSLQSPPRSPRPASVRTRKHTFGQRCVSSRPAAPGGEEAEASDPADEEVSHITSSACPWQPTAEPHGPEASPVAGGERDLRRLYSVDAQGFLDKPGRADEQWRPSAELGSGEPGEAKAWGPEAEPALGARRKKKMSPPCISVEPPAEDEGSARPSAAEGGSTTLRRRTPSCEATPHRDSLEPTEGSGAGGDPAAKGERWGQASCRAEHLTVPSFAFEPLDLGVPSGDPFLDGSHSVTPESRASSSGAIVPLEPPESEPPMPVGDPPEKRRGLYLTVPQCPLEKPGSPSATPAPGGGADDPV

The first test deals with T1, human α1G T-type channels (Homo sapiens, UniProt O43497).
T1 construct: expressed in transfected cells; host or cells: HEK 293
T1 sequence (O43497 whole entry): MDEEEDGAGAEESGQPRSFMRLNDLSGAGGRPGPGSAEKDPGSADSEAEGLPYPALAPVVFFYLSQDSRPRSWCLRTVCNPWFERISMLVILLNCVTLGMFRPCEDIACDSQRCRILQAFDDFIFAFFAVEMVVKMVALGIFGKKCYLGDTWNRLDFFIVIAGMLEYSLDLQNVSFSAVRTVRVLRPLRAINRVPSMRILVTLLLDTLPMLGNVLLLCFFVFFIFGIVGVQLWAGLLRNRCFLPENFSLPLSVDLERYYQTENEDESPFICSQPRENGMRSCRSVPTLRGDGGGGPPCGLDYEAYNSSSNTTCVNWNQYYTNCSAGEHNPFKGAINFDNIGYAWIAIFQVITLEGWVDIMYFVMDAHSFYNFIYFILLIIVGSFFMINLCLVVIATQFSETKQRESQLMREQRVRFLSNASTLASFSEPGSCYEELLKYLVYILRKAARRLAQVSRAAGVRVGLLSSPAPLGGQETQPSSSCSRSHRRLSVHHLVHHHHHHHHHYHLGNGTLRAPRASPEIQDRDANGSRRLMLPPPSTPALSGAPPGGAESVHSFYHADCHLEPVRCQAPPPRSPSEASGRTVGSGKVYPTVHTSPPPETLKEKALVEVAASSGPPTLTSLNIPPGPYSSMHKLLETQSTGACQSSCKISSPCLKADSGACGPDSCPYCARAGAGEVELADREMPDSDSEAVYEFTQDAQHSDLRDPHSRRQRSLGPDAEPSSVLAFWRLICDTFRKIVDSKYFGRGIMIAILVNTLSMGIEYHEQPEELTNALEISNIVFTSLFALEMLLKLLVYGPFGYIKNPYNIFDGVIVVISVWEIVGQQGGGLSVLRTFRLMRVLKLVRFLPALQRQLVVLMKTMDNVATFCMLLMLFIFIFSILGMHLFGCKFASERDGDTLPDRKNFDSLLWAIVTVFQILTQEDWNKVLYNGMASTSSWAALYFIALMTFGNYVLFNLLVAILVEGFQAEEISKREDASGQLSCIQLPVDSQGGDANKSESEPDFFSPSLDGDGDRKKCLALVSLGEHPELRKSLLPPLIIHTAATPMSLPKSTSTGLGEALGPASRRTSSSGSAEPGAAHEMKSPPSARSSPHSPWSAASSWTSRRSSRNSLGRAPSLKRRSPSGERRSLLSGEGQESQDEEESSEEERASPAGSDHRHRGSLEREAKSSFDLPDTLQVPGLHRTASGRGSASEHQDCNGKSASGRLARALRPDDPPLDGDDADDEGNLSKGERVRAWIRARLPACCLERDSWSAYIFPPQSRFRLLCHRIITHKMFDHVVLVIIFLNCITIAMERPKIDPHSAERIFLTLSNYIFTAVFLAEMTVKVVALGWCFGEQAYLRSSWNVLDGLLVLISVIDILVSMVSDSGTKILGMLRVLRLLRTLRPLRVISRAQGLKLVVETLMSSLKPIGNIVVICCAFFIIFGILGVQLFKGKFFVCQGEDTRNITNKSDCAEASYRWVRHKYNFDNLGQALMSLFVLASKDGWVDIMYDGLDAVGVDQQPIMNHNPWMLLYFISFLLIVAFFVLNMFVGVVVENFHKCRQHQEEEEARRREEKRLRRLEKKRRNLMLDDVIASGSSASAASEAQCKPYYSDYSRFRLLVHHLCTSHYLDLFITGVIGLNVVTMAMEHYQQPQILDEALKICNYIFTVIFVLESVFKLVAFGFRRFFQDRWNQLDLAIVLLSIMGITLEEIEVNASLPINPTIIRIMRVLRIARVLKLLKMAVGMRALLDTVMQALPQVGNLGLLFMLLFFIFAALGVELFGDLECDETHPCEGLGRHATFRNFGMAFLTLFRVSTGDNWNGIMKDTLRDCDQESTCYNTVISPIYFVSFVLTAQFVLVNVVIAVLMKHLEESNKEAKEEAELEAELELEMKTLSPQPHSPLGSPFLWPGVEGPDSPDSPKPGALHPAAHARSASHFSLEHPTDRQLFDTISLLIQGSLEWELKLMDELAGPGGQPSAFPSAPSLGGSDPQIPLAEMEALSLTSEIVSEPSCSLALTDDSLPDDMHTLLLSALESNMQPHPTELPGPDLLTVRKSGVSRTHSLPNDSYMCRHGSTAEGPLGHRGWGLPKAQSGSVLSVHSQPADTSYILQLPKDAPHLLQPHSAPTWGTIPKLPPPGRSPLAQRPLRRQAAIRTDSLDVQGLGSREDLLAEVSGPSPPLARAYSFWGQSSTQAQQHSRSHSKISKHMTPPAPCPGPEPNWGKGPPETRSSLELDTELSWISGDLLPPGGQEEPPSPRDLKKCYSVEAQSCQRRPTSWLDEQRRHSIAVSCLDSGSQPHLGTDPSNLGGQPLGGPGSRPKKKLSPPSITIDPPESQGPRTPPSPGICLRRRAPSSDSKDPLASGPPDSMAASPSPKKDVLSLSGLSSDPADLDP
The experiment in a line: T-type calcium channel block, whole cell patch clamp in HEK cells (α1G). Format: cell-based. The following applies: HEK cells, patch clamp, mainly non-inactivated protocol; values above 10 μM shown as 10 μM, below 0.30 μM shown as 0.30 μM; read-out: T-type Calcium Channel Block α1G IC50.
With `CC(C)(C)NC(=O)CN1CCC(CNC(=O)C2(c3ccccc3)CCCC2)CC1` [Compound 432, N-((1-(2-(tert-butylamino)-2-oxoethyl)piperidin-4-yl)methyl)-1-phenylcyclopentanecarboxamide], the concentration for half-maximal inhibition (IC50) was under 300 nM.

Regarding `Cc1cccc(C)c1NC(=O)CC1CCN(CCNS(=O)(=O)C(C)C)CC1` [Compound 433, N-(2,6-dimethylphenyl)-2-(1-(2-(1-methylethylsulfonamido)ethyl)piperidin-4-yl)acetamide], the concentration for half-maximal inhibition (IC50) was over 10000 nM.

A further test addresses T2, human α1H T-type channels (Homo sapiens, UniProt O95180).
T2 construct: expressed in transfected cells; host or cells: HEK 293
The experiment in a line: T-type calcium channel block, whole cell patch clamp in HEK cells (α1H). Format: cell-based. The note with it: HEK cells, patch clamp, mainly non-inactivated protocol; values above 10 μM shown as 10 μM; read-out: T-type Calcium Channel Block α1H IC50. As to the method:
T-type calcium channel blocking activity was assayed in human embryonic kidney cells, HEK 293, stably transfected with the T-type calcium channel subunits. Briefly, cells were cultured in Dulbecco's modified eagle medium (DMEM) supplemented with 10% fetal bovine serum, 200 U/ml penicillin and 0.2 mg/ml streptomycin at 37° C. with 5% CO2. At 85% confluency cells were split with 0.25% trypsin/1 mM EDTA and plated at 10% confluency on glass coverslips. […] Fresh DMEM was supplied and the cells transferred to 28° C./5% CO2. Cells were incubated for 1 to 2 days prior to whole cell recording.
Standard patch-clamp techniques were employed to identify blockers of T-type currents. Briefly, previously described HEK cell lines stably expressing human α1G, α1H and α1I T-type channels were used for all the recordings (passage #: 4-20, 37° C., 5% CO2). Whole cell patch clamp experiments were performed using an Axopatch 200B amplifier (Axon Instruments, Burlingame, Calif.) linked to a personal computer equipped with pCLAMP software. Data were analyzed using Clampfit (Axon Instruments) and SigmaPlot 4.0 (Jandel Scientific). To obtain T-type currents, plastic dishes containing semi-confluent cells were positioned on the stage of a ZEISS AXIOVERT S100 microscope after replacing the culture medium with external solution (see below). Whole-cell patches were obtained using pipettes (borosilicate glass with filament, O.D.: 1.5 mm, I.D.: 0.86 mm, 10 cm length), fabricated on a SUTTER P-97 puller with resistance values of ˜5 MΩ (see below for internal solution).
In the non-inactivating protocol, the holding potential is set at −110 mV and with a pre-pulse at −100 mV for 1 second prior to the test pulse at −40 mV for 50 ms.
Test compounds were dissolved in external solution, 0.1-0.01% DMSO. After ˜10 min rest, they were applied by gravity close to the cell using a WPI microfil tubing. The “non-inactivated” pre-pulse was used to examine the resting block of a compound. The “inactivated” protocol was employed to study voltage-dependent block. […] Values are shown in μM and values above 10 μM are simply represented as 10 μM.
Turning to `CC(C)(CN1CCC(CNC(=O)c2cc(F)cc(C(F)(F)F)c2)CC1)NS(=O)(=O)C(F)(F)F` [Compound 6, 3-fluoro-N-((1-(2-methyl-2-(trifluoromethylsulfonamido)propyl)piperidin-4-yl)methyl)-5-(trifluoromethyl)benzamide], the IC50 worked out at 1320 nM.

Take `CCS(=O)(=O)NC(C)(C)CN1CCC(CNC(=O)c2cc(F)cc(C(F)(F)F)c2)CC1` [Compound 7, N-((1-(2-(ethylsulfonamido)-2-methylpropyl)piperidin-4-yl)methyl)-3-fluoro-5-(trifluoromethyl)benzamide]: the IC50 is 4330 nM.

For `CC(C)(CN1CCC(CNC(=O)c2cc(F)cc(C(F)(F)F)c2)CC1)NS(=O)(=O)C1CC1` [Compound 8, N-((1-(2-(cyclopropanesulfonamido)-2-methylpropyl)piperidin-4-yl)methyl)-3-fluoro-5-(trifluoromethyl)benzamide], the concentration for half-maximal inhibition (IC50) turned out to be 2420 nM.

`CC(C)CS(=O)(=O)NCCN1CCC(CNC(=O)c2cc(C(F)(F)F)cc(C(F)(F)F)c2)CC1` [Compound 27, N-((1-(2-(2-methylpropylsulfonamido)ethyl)piperidin-4-yl)methyl)-3,5-bis(trifluoromethyl)benzamide]: the concentration for half-maximal inhibition (IC50) amounted to 190 nM.

Regarding `CCC(=O)NCCN1CCC(CNC(=O)c2cc(C(F)(F)F)cc(C(F)(F)F)c2)CC1` [Compound 58, N-((1-(2-propionamidoethyl)piperidin-4-yl)methyl)-3,5-bis(trifluoromethyl) benzamide], the IC50 came out at 4010 nM.

Turning to `CC(C)(C)C(=O)NCCN1CCC(CNC(=O)c2cc(C(F)(F)F)cc(C(F)(F)F)c2)CC1` [Compound 60, N-((1-(2-pivalamidoethyl)piperidin-4-yl)methyl)-3,5-his(trifluoromethyl)benzamide], the IC50 was determined as 220 nM.

With `CN1CCC(C(=O)NCCN2CCC(CNC(=O)c3cc(C(F)(F)F)cc(C(F)(F)F)c3)CC2)CC1` [Compound 61, N-(2-(4-((3,5-bis(trifluoromethyl)benzamido)methyl)piperidin-1-yl)ethyl)-1-methylpiperidin-4-carboxamide], the IC50 was over 10000 nM.

Turning to `O=C(NCC1CCN(CCNC(=O)C2CCCC2)CC1)c1cc(C(F)(F)F)cc(C(F)(F)F)c1` [Compound 62, N-((1-(2-(cyclopentanecarboxamido)ethyl)piperidin-4-yl)methyl)-3,5-bis(trifluoromethyl)benzamide], the half-maximal inhibitory concentration (IC50) was found to be 230 nM.

For the molecule `O=C(CC1CC1)NCCN1CCC(CNC(=O)c2cc(C(F)(F)F)cc(C(F)(F)F)c2)CC1` [Compound 63, N-((1-(2-(2-cyclopropylacetamido)ethyl)piperidin-4-yl)methyl)-3,5-bis(trifluoromethyl)benzamide], the IC50 worked out at 430 nM.

As to `C[C@H]1CC[C@H](C(=O)NCCN2CCC(CNC(=O)c3cc(C(F)(F)F)cc(C(F)(F)F)c3)CC2)CC1` [Compound 64, N-((1-(2-((1r,4r)-4-methylcyclohexanecarboxamido)ethyl)piperidin-4-yl)methyl)-3,5-bis(trifluoromethyl)benzamide], the IC50 came to 200 nM.

Regarding `CC(C)(O)C(=O)NCCN1CCC(CNC(=O)c2cc(C(F)(F)F)cc(C(F)(F)F)c2)CC1` [Compound 65, N-((1-(2-(2-hydroxy-2-methylpropanamido)ethyl)piperidin-4-yl)methyl)-3,5-bis(trifluoromethyl) benzamide], the 50% inhibitory concentration (IC50) amounted to 6370 nM.

Take `O=C(CCC(F)(F)F)NCCN1CCC(CNC(=O)c2cc(C(F)(F)F)cc(C(F)(F)F)c2)CC1` [Compound 66, N-((1-(2-(4,4,4-trifluorobutanamido)ethyl)piperidin-4-yl)methyl)-3,5-bis(trifluoromethyl) benzamide]: the IC50 amounted to 370 nM.

Turning to `COCCC(=O)NCCN1CCC(CNC(=O)c2cc(C(F)(F)F)cc(C(F)(F)F)c2)CC1` [Compound 68, N-((1-(2-(3-methoxypropanamido)ethyl)piperidin-4-yl)methyl)-3,5-bis(trifluoromethyl) benzamide], the IC50 stood at 7560 nM.

With `O=C(CN1CCC(CNC(=O)c2cc(C(F)(F)F)cc(C(F)(F)F)c2)CC1)NC1CCCC1` [Compound 92, N-((1-(2-(cyclopentylamino)-2-oxoethyl)piperidin-4-yl)methyl)-3,5-bis(trifluoromethyl)benzamide], the IC50 stood at 60 nM.

Consider `CC1CCCCC1NC(=O)CN1CCC(CNC(=O)c2cc(C(F)(F)F)cc(C(F)(F)F)c2)CC1` (stereo not shown) [Compound 93], for which the half-inhibitory concentration (IC50) was 90 nM.

`O=C(CN1CCC(CNC(=O)c2cc(C(F)(F)F)cc(C(F)(F)F)c2)CC1)NC1CCCCC1` [Compound 94, N-((1-(2-(cyclohexylamino)-2-oxoethyl)piperidin-4-yl)methyl)-3,5-bis(trifluoromethyl)benzamide]: the IC50 is 60 nM.

For `O=C(CN1CCC(CNC(=O)c2cc(C(F)(F)F)cc(C(F)(F)F)c2)CC1)NC1CC1` [Compound 95, N-((1-(2-(cyclopropylamino)-2-oxoethyl)piperidin-4-yl)methyl)-3,5-bis(trifluoromethyl)benzamide], the IC50 is over 10000 nM.

With `O=C(CN1CCC(CNC(=O)c2cc(C(F)(F)F)cc(C(F)(F)F)c2)CC1)N[C@H]1CC[C@H](O)CC1` [Compound 96, N-((1-(2-((1r,4r)-4-hydroxycyclo-hexylamino)-2-oxoethyl)piperidin-4-yl)methyl)-3,5-bis(trifluoromethyl) benzamide], the IC50 was over 10000 nM.

As for `C[C@H]1CC[C@H](NC(=O)CN2CCC(CNC(=O)c3cc(C(F)(F)F)cc(C(F)(F)F)c3)CC2)CC1` [Compound 97, N-((1-(2-((1r,4r)-4-methylcyclo-hexylamino)-2-oxoethyl)piperidin-4-yl)methyl)-3,5-bis(trifluoromethyl) benzamide], the half-maximal inhibitory concentration (IC50) was 100 nM.

As to `O=C(NCC1CCN(CC(=O)N2CCCC(O)C2)CC1)c1cc(C(F)(F)F)cc(C(F)(F)F)c1` (stereo not shown) [Compound 98, N-((1-(2-(3-hydroxypiperidin-1-yl)-2-oxoethyl)piperidin-4-yl)methyl)-3,5-bis(trifluoromethyl)benzamide], the IC50 was 3600 nM.

For the molecule `CC1CCCN(C(=O)CN2CCC(CNC(=O)c3cc(C(F)(F)F)cc(C(F)(F)F)c3)CC2)C1` (stereo not shown) [Compound 99, N-((1-(2-(3-methylpiperidin-1-yl)-2-oxoethyl)piperidin-4-yl)methyl)-3,5-bis(trifluoromethyl)benzamide], the IC50 was found to be 210 nM.

In the case of `CCC1CCCCN1C(=O)CN1CCC(CNC(=O)c2cc(C(F)(F)F)cc(C(F)(F)F)c2)CC1` (stereo not shown) [Compound 100, N-((1-(2-(2-ethylpiperidin-1-yl)-2-oxoethyl)piperidin-4-yl)methyl)-3,5-bis(trifluoromethyl)benzamide], the half-maximal inhibitory concentration (IC50) was found to be 100 nM.

Regarding `CN(C(=O)CN1CCC(CNC(=O)c2cc(C(F)(F)F)cc(C(F)(F)F)c2)CC1)C1CCCCC1` [Compound 101, N-((1-(2-(cyclohexyl(methyl)amino)-2-oxoethyl)piperidin-4-yl)methyl)-3,5-bis(trifluoromethyl)benzamide], the IC50 was 140 nM.

As for `O=C(NCC1CCN(CC(=O)N2CCC(O)CC2)CC1)c1cc(C(F)(F)F)cc(C(F)(F)F)c1` [Compound 102, N-((1-(2-(4-hydroxypiperidin-1-yl)-2-oxoethyl)piperidin-4-yl)methyl)-3,5-bis(trifluoromethyl)benzamide], the IC50 was over 10000 nM.

Regarding `COC1CCN(C(=O)CN2CCC(CNC(=O)c3cc(C(F)(F)F)cc(C(F)(F)F)c3)CC2)CC1` [Compound 103, N-((1-(2-(4-methoxypiperidin-1-yl)-2-oxoethyl)piperidin-4-yl)methyl)-3,5-bis(trifluoromethyl)benzamide], the 50% inhibitory concentration (IC50) amounted to 1210 nM.

As to `C[C@@H]1CCCCN1C(=O)CN1CCC(CNC(=O)c2cc(C(F)(F)F)cc(C(F)(F)F)c2)CC1` [Compound 104, (R)-N-((1-(2-(2-methylpiperidin-1-yl)-2-oxoethyl)piperidin-4-yl)methyl)-3,5-bis(trifluoromethyl)benzamide], the IC50 amounted to 140 nM.
